Several values for one entry are separate records, joined by “and”; a condition that tells them apart may be missing. Equal entries are not always repeated. Where two headings read alike, the source gives them in different places.
Assays:
PHFs from htau24 = molecular target: T1, PHFs from htau24 (Homo sapiens, UniProt P10636); assay: Thioflavine S assay, depolymerisation of pre-formed PHFs, htau24; format: biochemical
T1 construct: made in house; host or cells: E. coli
Protocol: (§1) The ThS assay was used to analyse the ability of the five compounds (see Example 4) to depolymerise pre-formed PHFs made from the repeat domain constructs K19 and K18 as well as from isoforms htau23 and htau24, containing 3 or 4 repeats, respectively.
(§2) Tau constructs and isoforms K19, K18, hTau23, hTau24 (10 μM) were first aggregated into PHFs for 48 hours in the presence of 2.5 μM heparin (except K18/ΔK280) and the polymers separated from the soluble tau by centrifugation of 1 h at 100,000 g, redissolved and then exposed to the inhibitors overnight at 37° C. at the indicated concentrations (range 0.001-200 μM).

tau construct K19 = molecular target: T2, tau construct K19 (Homo sapiens, UniProt P10636); assay: Thioflavine S assay, inhibition of PHF formation, K19; format: biochemical; details: ThS fluorescence, 10 μM K19, heparin; read-out: Inhibition of tau aggregation IC50, K19
T2 construct: construct K19 containing three repeats; made in house; host or cells: E. coli
T2 sequence (P10636 with tags, fused parts or gaps isoform P10636-2 limits assumed): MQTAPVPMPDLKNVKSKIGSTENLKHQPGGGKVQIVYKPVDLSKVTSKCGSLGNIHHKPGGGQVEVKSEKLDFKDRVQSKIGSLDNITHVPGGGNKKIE
Protocol: Assembly of synthetic PHFs of tau protein (K19, 10 μM) was performed at 37° C. in the presence of polyanions (heparin; 5 μM) in 50 mM NH4Ac, pH 6.8. Assembly was followed either qualitatively by electron microscopy or quantitatively by fluorescence assay using thioflavine S. PHF-formation of tau isoforms htau23 and htau24 was carried out in PBS-buffer pH 7.4, 50 μM protein, and 12.5 μM heparin. The samples were incubated at 50° C. for 10 days. In the case of htau24 and K18, DTT was added at a final concentration of 1 mM each day in order to avoid intra-molecular disulfide crosslinking (Barghorn et al., 2000).
PHF formation was monitored by a thioflavine S fluorescence assay (Friedhoff et al., 1998a) adapted to a 384 well format. 60 μM of each substance was tested for its inhibitory effect on PHF formation. Using an automated pipetting system (Cybi-Well, CyBio, Jena, Germany) 50 mM NH4AC, 10 μM protein (K19), 60 μM compound and 5 μM heparin were mixed in 50 μl volume in a 384 well plate (black microtiter 384 plate round well, ThermoLabsystems, Dreiich, Germany) and incubated overnight at 37° C. As a control the protein was replaced with H2O to measure the possible fluorescence of the compounds. As a second control the reaction mixture without compound was treated in the same way.
After incubation with the compounds thioflavine S was added to the buffer to a final concentration of 20 μM and the signal was measured at excitation at 440 nm and emission at 521 nm in a spectrofluorimeter (Ascent; Labsystems, Frankfurt).
Inhibitory effects begun to appear at concentrations around 0.1 μM (ratio of protein to compound=100), and reached nearly complete inhibition at 100 μM compound concentration (ratio protein/compound=0.1). Overall, the curves of FIG. 2A decay fairly steeply over a compound concentration range of 2-3 orders of magnitude.
(A) extent of aggregation of tau construct K19 (10 μM) plotted vs. inhibitor concentration (range 1 fM-60 μM). The extent of aggregation was measured by the thioflavin S fluorescence assay and the degree of inhibition was plotted as percentage of control. All measurements were performed in triplicates.

K18/ΔK280 = K18/ΔK280 (Homo sapiens, UniProt P10636, DEL598-598); assay: Thioflavine S assay, inhibition of PHF formation, K18/ΔK280 without heparin; format: biochemical
Chain of K18/ΔK280 (P10636 with tags, fused parts or gaps DEL598-598): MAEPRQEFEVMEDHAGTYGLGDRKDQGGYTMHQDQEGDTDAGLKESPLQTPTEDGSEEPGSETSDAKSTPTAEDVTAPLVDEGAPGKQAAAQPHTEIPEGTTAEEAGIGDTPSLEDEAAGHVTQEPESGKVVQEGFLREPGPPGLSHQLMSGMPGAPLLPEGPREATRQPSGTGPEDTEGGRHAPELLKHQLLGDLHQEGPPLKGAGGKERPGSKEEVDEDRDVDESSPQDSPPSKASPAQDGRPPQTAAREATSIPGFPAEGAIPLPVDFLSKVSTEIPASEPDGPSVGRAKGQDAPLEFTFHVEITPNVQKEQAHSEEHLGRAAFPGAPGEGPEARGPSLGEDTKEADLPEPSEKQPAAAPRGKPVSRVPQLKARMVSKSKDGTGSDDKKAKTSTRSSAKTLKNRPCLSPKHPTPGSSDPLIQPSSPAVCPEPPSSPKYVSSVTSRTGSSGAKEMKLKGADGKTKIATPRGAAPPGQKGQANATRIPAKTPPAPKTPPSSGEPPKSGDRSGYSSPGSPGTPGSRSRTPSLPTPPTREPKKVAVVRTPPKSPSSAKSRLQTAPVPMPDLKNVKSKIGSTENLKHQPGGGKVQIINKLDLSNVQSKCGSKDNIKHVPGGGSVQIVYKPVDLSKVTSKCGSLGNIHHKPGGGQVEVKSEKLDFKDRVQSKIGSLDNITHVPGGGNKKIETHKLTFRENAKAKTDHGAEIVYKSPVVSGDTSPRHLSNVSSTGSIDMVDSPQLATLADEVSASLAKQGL
Description: All the polymerisation reactions described so far used heparin as a cofactor for inducing PHF assembly because otherwise the process would be impracticably slow (Goedert et al., 1996; Perez et al., 1996). In order to rule out a potential influence of heparin on the efficiency of the compounds the 4-repeat construct K18/ΔK280 which carries one of the mutations observed in frontotemporal dementia (van Swieten et al., 1999) and is capable of polymerising into PHFs without a polyanionic cofactor (von Bergen, 2001) (FIG. 2E) was used. […] The differences in inhibition effects for K18 (with heparin) and K18/ΔK280 (without heparin) could be caused either by a difference in conformation and/or protein-protein interactions, or perhaps by an interaction between the compound and the cofactor heparin.

PHFs from K18/ΔK280 = assay: Thioflavine S assay, depolymerisation of pre-formed PHFs, K18/ΔK280 without heparin; format: biochemical, human; details: ThS fluorescence, PHFs made without heparin
Protocol: as §1
The higher DC50 values for K18/ΔK280 point to the higher stability of PHFs formed by this mutant.
as §2, with “μM). The compounds are capable of disassembling PHFs with varying efficiencies (see Table 2).” for “μM).”

Aβ1-40 peptide = molecular target: T3, Aβ1-40 peptide (Homo sapiens, UniProt P05067); assay: Aβ fibre aggregation inhibition (thioflavine T); format: biochemical; details: 60 μM compound
T3 construct: Commercial human Aβ1-40 was obtained from Calbiochem; purchased Calbiochem
T3 sequence (P05067 672-711): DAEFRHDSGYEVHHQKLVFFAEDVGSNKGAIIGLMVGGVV
Protocol: Besides the activity of the compounds towards tau fibres, their specificity is an important issue, i.e. the ability to discriminate between different types of aggregates. Therefore, an analysis of the influence of the compounds (60 μM) on amyloid fibrils made from the Aβ1-40 peptide, both in terms of inhibition of de novo filament formation and depolymerisation was performed (FIGS. 8A-B). These fibres are also abundant in Alzheimer brain and contain a core of cross-β-structure, but are located outside the cells, in contrast to the intracellular PHFs.
Commercial human Aβ1-40 was obtained from Calbiochem (Schwalbach, Germany) and stored at −20° C. The AD peptide was routinely dissolved in 100% DMSO to obtain a 2 mM stock solution, which was subsequently stored frozen at −20° C. 5 μl from the 2 mM Aβ stock solution was added to 90 μl of 25 mM phosphate buffer containing 120 mM NaCl, and 0.02% sodium azide, final pH 7.4 and 5 μl of 100% DMSO so that the final DMSO concentration was 10% v/v, and the protein concentration was adjusted to 100 μM. Incubations were at room temperature. In order to accelerate aggregation tubes were put on a lab shaker and agitated at moderate speed. For analysis 5 μl of this solution were added to 45 μl 10 mM phosphate buffer containing 6 μM thioflavine T, pH 6.0, after 30 minutes incubation at room temperature the fluorescence was measured at 504 nm emission by an excitation of 409 nm. To correlate fibril morphology with the fluorescence signal, aliquots of the Aβ1-40 solutions were simultaneously prepared for electron microscopy. The inhibition of fibril formation and disassembly of pre-formed Aβ-fibrils were carried out in triplicates with 60 μM compound and 10 μM protein.
Aβ peptide 1-40 (10 μM) was incubated with moderate shaking overnight at room temperature and incubated with various compounds (60 μM) overnight.

[1] = ThS fluorescence, pre-formed PHFs; read-out: Depolymerisation of PHFs DC50, hTau24
[2] = ThS fluorescence, read-out: Inhibition of tau aggregation IC50, K18/ΔK280

T1 sequence (P10636 1-383 isoform P10636-6): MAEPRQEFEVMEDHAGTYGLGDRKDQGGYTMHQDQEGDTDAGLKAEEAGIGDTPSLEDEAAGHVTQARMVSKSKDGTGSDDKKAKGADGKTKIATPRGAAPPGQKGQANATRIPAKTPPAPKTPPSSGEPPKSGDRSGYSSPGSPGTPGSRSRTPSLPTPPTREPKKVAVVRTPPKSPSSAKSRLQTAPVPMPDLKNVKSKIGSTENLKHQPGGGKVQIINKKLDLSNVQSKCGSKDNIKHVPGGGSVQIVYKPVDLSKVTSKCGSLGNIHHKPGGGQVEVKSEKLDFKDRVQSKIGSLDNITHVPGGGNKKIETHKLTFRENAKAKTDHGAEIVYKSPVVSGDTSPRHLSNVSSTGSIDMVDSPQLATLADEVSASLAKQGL

**Q.** Which DC50 (PHFs from htau24; read-out: Depolymerisation of PHFs DC50, hTau24; ThS fluorescence, pre-formed PHFs) does the source give for `COc1cccc2c1C(=O)c1c(O)c3c(c(O)c1C2=O)CC(O)(C(=O)CO)CC3OC1CC(N)C(O)C(C)O1` (centres unmarked) [Adriamycin, 10-(4-Amino-5-hydroxy-6-methyl-tetrahydro-pyran-2-yloxy)-6,8,11-trihydroxy-8-(2-hydroxyethanoyl)-1-methoxy-7,8,9,10-tetrahydro-naphthacene-5,12-dione, reference compound] here?
**A.** > 60 µM

**Q.** What about the IC50 (tau construct K19) of the same compound?
**A.** 17.6 µM

**Q.** What about the IC50 (K18/ΔK280; Inhibition of tau aggregation IC50, K18/ΔK280, ThS fluorescence) of the same compound?
**A.** 3.9 µM

**Q.** What about the DC50 (PHFs from K18/ΔK280) of the same compound?
**A.** 22 µM

**Q.** For `COc1cccc2c1C(=O)c1c(O)c3c(c(O)c1C2=O)CC(O)(C(C)=O)CC3OC1CC(N)C(O)C(C)O1` (centres unmarked) [Daunorubicin, 8-Acetyl-10-(4-amino-5-hydroxy-6-methyl-tetrahydro-pyran-2-yloxy)-6,8,11-trihydroxy-1-methoxy-7,8,9,10-tetrahydro-naphthacene-5,12-dione, reference compound], which “depolymerisation of htau24 filaments” value (PHFs from htau24) is on record?
**A.** only weak PHF breakers

**Q.** And the DC50 (PHFs from htau24; [1])?
**A.** > 60 µM

**Q.** What about the IC50 (tau construct K19) of the same compound?
**A.** 1 µM

**Q.** What about the IC50 (K18/ΔK280; [2]) of the same compound?
**A.** 48 µM and 48.1 µM

**Q.** And the “inhibition of Aβ fibre aggregation” value (Aβ1-40 peptide)?
**A.** most efficient

**Q.** And the DC50 (PHFs from K18/ΔK280)?
**A.** 7.7 µM

**Q.** How did the “depolymerisation of htau24 filaments” value (PHFs from htau24) turn out when `Cc1cc(O)c2c(c1)C(=O)c1cc(O)cc(O)c1C2=O` [Emodin, 1,3,8-Trihydroxy-6-methyl-anthraquinone] was run?
**A.** only weak PHF breakers

**Q.** What about the DC50 (PHFs from htau24; [1]) of the same compound?
**A.** > 60 µM

**Q.** And the IC50 (tau construct K19)?
**A.** 2.4 µM

**Q.** What about the IC50 (K18/ΔK280; [2]) of the same compound?
**A.** 1.9 µM

**Q.** What about the “inhibition of Aβ fibre aggregation” value (Aβ1-40 peptide) of the same compound?
**A.** most efficient

**Q.** And the DC50 (PHFs from K18/ΔK280)?
**A.** 2.7 µM

**Q.** Which DC50 (PHFs from htau24; [1]) does the source give for `O=C(c1ccccc1)c1ccc(O)c(O)c1O` [PHF005, 1-Phenyl-1-(2,3,4-trihydroxy-phenyl)-methanone] here?
**A.** 10.8 µM

**Q.** What about the IC50 (tau construct K19) of the same compound?
**A.** 6 µM

**Q.** What about the “inhibition of filament formation, K18/ΔK280” value (K18/ΔK280) of the same compound?
**A.** failed nearly completely

**Q.** What about the IC50 (K18/ΔK280; [2]) of the same compound?
**A.** > 60 µM

**Q.** And the inhibition at 60 µM (Aβ1-40 peptide; 10 μM Aβ1-40, read-out: inhibition of Aβ filament formation)?
**A.** ~50%

**Q.** And the DC50 (PHFs from K18/ΔK280)?
**A.** > 100 µM

**Q.** What about the “Depolymerisation of PHFs DC50, K18/ΔK280” value (PHFs from K18/ΔK280) of the same compound?
**A.** not accurately detectable

**Q.** Which results are given for `O=C1c2ccc(O)c(O)c2C(=O)c2c(O)ccc(O)c21` [PHF016, 1,2,5,8-Tetrahydroxy-anthraquinone]?
**A.** DC50 (PHFs from htau24; [1]): 39.2 µM; IC50 (tau construct K19): 6.8 µM; IC50 (K18/ΔK280; [2]): 1.3 µM; inhibition of Aβ fibre aggregation (Aβ1-40 peptide): most efficient; DC50 (PHFs from K18/ΔK280): > 60 µM; Depolymerisation of PHFs DC50, K18/ΔK280 (PHFs from K18/ΔK280): not accurately detectable

Reference: patent publication US20060223812A1, “Treating neurodegenerative conditions” (MAX-PLANCK-GESELLSCHAFT ZUR FORDERUNGDER WISSENSCHAFTEN, …, priority 2004, published 2006)
